Assay results reported in PMC7897990, “TriTOX: A novel Trichomonas vaginalis assay platform for high-throughput screening of compound libraries” (International Journal for Parasitology: Drugs and Drug …, 2021).
Read-outs that look alike come from different tables or passages of the source.

Legend:
[1] = tested on: Trichomonas vaginalis G3 trophozoites
[2] = tested on: nontumorigenic neonatal foreskin fibroblast (NFF) cell line
[3] = HTS, parasite screen at 1 µg/mL, replicate 1
[4] = HTS, parasite screen at 1 µg/mL, replicate 1, raw absorbance
[5] = HTS, parasite screen at 1 µg/mL, replicate 2
[6] = HTS, parasite screen at 1 µg/mL, replicate 2, raw absorbance
[7] = NFF fibroblast screen at 5 µg/mL, A = active, I = inactive
[8] = HTS replicate 1, parasite screen 1 µg/mL
[9] = HTS replicate 2, parasite screen 1 µg/mL
[10] = NFF fibroblasts, single concentration 5 µg/mL
[11] = replicate 1, parasite screen at 1 µg/mL
[12] = replicate 2, parasite screen at 1 µg/mL
[13] = HTS single concentration, parasite screen 1 µg/mL, replicate 1
[14] = HTS single concentration, parasite screen 1 µg/mL, replicate 2
[15] = NFF_NS1 screen 5 µg/mL, single concentration
[16] = parasite screen at 1 µg/mL, replicate 1
[17] = parasite screen at 1 µg/mL, replicate 2
[18] = NFF_NS1 screen at 5 µg/mL, NFF cells

Compound: COc1ccc2c3c([nH]c2c1)[C@H](C=C(C)C)N1C(=O)[C@@H]2CCCN2C(=O)[C@@H]1C3 [Fumitremorgin C]
- T.vaginalis_%inb_Rep1 [1, 3]: 12.68%
- T.vaginalis_Absorbance_Rep1 [1, 4]: 0.952
- T.vaginalis_%inb_Rep2 [1, 5]: 4.11%
- T.vaginalis_Absorbance_Rep2 [1, 6]: 0.699
- NFF_Activity ([2]; NFF_NS1 screen at 5 µg/mL): I (otherwise these were reported as inactive (I))

Compound: OCC1=CC(NC2CC(CO)C(OC3OC(CO)C(O)C(O)C3O)C(O)C2O)C(O)C(O)C1O (stereo not drawn) [Validamycin A]
- T.vaginalis_%inb_Rep1 [1, 3]: 14.26%
- T.vaginalis_%inb_Rep2 [1, 5]: 19.07%
- NFF_Activity [2, 7]: I (otherwise these were reported as inactive (I))

Compound: C[C@H]1CCN2C[C@]34C[C@@]5(C(=O)Nc6c5ccc5c6OC=CC(C)(C)O5)C(C)(C)[C@@H]3C[C@]12C(=O)N4C [Paraherquamide E]
- T.vaginalis_%inb_Rep1 [1, 8]: 16.63%
- T.vaginalis_%inb_Rep2 [1, 9]: 15.01%
- NFF_Activity [2, 10]: I (otherwise these were reported as inactive (I))

Compound: O=c1cc2ccocc-2o1 [BIA-K1792]
- T.vaginalis_%inb_Rep1 [1, 11]: 12.93%
- T.vaginalis_%inb_Rep2 [1, 12]: 13.15%
- NFF_Activity ([2]; NFF cells, screen at 5 µg/mL): I (otherwise these were reported as inactive (I))

Compound: Viridicatumtoxin
- T.vaginalis_%inb_Rep1 [1, 3]: 8.70%
- T.vaginalis_%inb_Rep2 [1, 5]: 2.74%
- NFF_Activity [2, 7]: I (otherwise these were reported as inactive (I))

Compound: C=C(C)[C@@H]1CC[C@]2(C(=O)OC)CC[C@]3(C)[C@H](CC[C@@H]4[C@@]5(C)CC[C@H](O)C(C)(C)[C@@H]5CC[C@]43C)[C@@H]12 [BIA-M1757]
- T.vaginalis_%inb_Rep1 [1, 13]: 14.81%
- T.vaginalis_%inb_Rep2 [1, 14]: 16.56%
- NFF_Activity [2, 15]: I (otherwise these were reported as inactive (I))

Compound: Cc1c2c(c(O)c3c(O)ccc(Cl)c13)C(=O)[C@]1(O)C(O)=C(C(N)=O)C(=O)[C@@H](N(C)C)[C@@H]1C2.Cl [BIA-A1552]
- T.vaginalis_%inb_Rep1 [1, 13]: 13.30%
- T.vaginalis_%inb_Rep2 [1, 14]: 11.71%
- NFF_Activity [2, 15]: I (otherwise these were reported as inactive (I))

Compound: CC[C@H](C)[C@H]1O[C@]2(CC[C@@H]1C)C[C@@H]1C[C@@H](C/C=C(\C)[C@@H](O[C@H]3C[C@H](OC)[C@@H](O)[C@H](C)O3)[C@@H](C)/C=C/C=C3\CO[C@@H]4[C@H](O)C(C)=C[C@@H](C(=O)O1)[C@]34O)O2 [BIA-I1150]
- T.vaginalis_%inb_Rep1 [1, 11]: 15.62%
- T.vaginalis_%inb_Rep2 [1, 12]: 12.38%
- NFF_Activity ([2]; NFF cells, screen at 5 µg/mL): I (otherwise these were reported as inactive (I))

Compound: CC[C@]1(C)C[C@@H](OC(=O)CSc2n[nH]c(N)n2)[C@]2(C)[C@H](C)CC[C@]3(CCC(=O)[C@H]32)[C@@H](C)[C@@H]1O [BIA-A1489]
- T.vaginalis_%inb_Rep1 [1, 13]: 14.65%
- T.vaginalis_%inb_Rep2 [1, 14]: 19.67%
- NFF_Activity [2, 15]: I (otherwise these were reported as inactive (I))

Compound: O=C(N[C@H](COC(=O)[C@H](Cc1ccccc1)NC(=O)c1ccccc1)Cc1ccccc1)c1ccccc1 [BIA-A1643]
- T.vaginalis_%inb_Rep1 [1, 13]: 13.09%
- T.vaginalis_%inb_Rep2 [1, 14]: 15.04%
- NFF_Activity [2, 15]: I (otherwise these were reported as inactive (I))

Compound: CCOC(=O)[C@H](Cc1ccccc1)NC(=O)c1cc(Cl)c2c(c1O)C(=O)O[C@H](C)C2 [Ochratoxin C]
- T.vaginalis_%inb_Rep1 [1, 8]: 15.37%
- T.vaginalis_%inb_Rep2 [1, 9]: 4.81%
- NFF_Activity [2, 10]: I (otherwise these were reported as inactive (I))

Compound: C[C@H]1NC(=O)[C@@H]2CCCCN2C(=O)CN(C)C(=O)CNC(=O)[C@@H]2CCCCN2C(=O)[C@H](NC(=O)c2nc3ccccc3cc2O)[C@@H](C)NC(=O)[C@@H]2CCCCN2C(=O)CN(C)C(=O)CNC(=O)[C@@H]2CCCCN2C(=O)[C@@H]1NC(=O)c1nc2ccccc2cc1O [Quinaldopeptin]
- T.vaginalis_%inb_Rep1 [1, 8]: 92.82%
- T.vaginalis_%inb_Rep2 [1, 9]: 95.37%
- NFF_Activity [2, 10]: I (otherwise these were reported as inactive (I))

Compound: CC(=O)Nc1c2sscc-2n(C)c1=O [BIA-T1138]
- T.vaginalis_%inb_Rep1 [1, 16]: 100.00%
- T.vaginalis_%inb_Rep2 [1, 17]: 97.56%
- NFF_Activity [2, 18]: A (active (A) compounds having >25% inhibitory activity)

Compound: CCC1OC(=O)C(C)C(=O)C(C)C(OC2OC(C)CC(N(C)C)C2O)C(C)(OC)CC(C)C(=O)C(C)C2N(CCCCn3cnc(-c4cccnc4)c3)C(=O)OC12C (stereo not drawn) [BIA-T1316]
- T.vaginalis_%inb_Rep1 [1, 16]: 0.94%
- T.vaginalis_%inb_Rep2 [1, 17]: 5.97%
- NFF_Activity [2, 18]: I (otherwise these were reported as inactive (I))

Compound: C[C@H]1CCC/C=C/C(=O)c2c(O)cc(O)cc2CC(=O)O1 [BIA-D1399]
- T.vaginalis_%inb_Rep1 [1, 13]: 13.95%
- T.vaginalis_%inb_Rep2 [1, 14]: 13.67%
- NFF_Activity [2, 15]: A (active (A) compounds having >25% inhibitory activity)

Compound: CCCC[C@@H](C)[C@@H](OC(=O)C[C@@H](CC(=O)O)C(=O)O)[C@H](C[C@@H](C)C[C@H](O)CCCC[C@@H](O)C[C@H](O)[C@H](C)N)OC(=O)C[C@@H](CC(=O)O)C(=O)O [Fumonisin B1]
- T.vaginalis_%inb_Rep1 [1, 3]: 12.98%
- T.vaginalis_Absorbance_Rep1 [1, 4]: 0.958
- T.vaginalis_%inb_Rep2 [1, 5]: 14.05%
- T.vaginalis_Absorbance_Rep2 [1, 6]: 0.854
- NFF_Activity ([2]; NFF_NS1 screen at 5 µg/mL): I (otherwise these were reported as inactive (I))

Compound: COc1cc2c(c3oc(=O)c4c(c13)CCOC4=O)[C@@H]1CCO[C@@H]1O2 [BIA-A1235]
- T.vaginalis_%inb_Rep1 [1, 13]: 12.33%
- T.vaginalis_%inb_Rep2 [1, 14]: 13.81%
- NFF_Activity [2, 15]: I (otherwise these were reported as inactive (I))

Compound: Oc1cccc2nc3ccccc3nc12 [BIA-H1520]
- T.vaginalis_%inb_Rep1 [1, 11]: 9.69%
- T.vaginalis_%inb_Rep2 [1, 12]: 12.89%
- NFF_Activity ([2]; NFF cells, screen at 5 µg/mL): I (otherwise these were reported as inactive (I))

Compound: COc1ccc2[nH]c3c(C)c4ccncc4c(C)c3c2c1 [BIA-M1952]
- T.vaginalis_%inb_Rep1 [1, 11]: 5.30%
- T.vaginalis_%inb_Rep2 [1, 12]: 7.25%
- NFF_Activity ([2]; NFF cells, screen at 5 µg/mL): A (active (A) compounds having >25% inhibitory activity)

Compound: CC=CC=CC1OC(O)(C(C)C(O)C(C)C2OC(=O)C(OC)=CC(C)=CC(C)C(O)C(C)CC(C)=CC=CC2OC)CC(OC2CC(O)C(O)C(C)O2)C1C (stereo not drawn) [PC-766B]
- T.vaginalis_%inb_Rep1 [1, 8]: 72.87%
- T.vaginalis_%inb_Rep2 [1, 9]: 76.65%
- NFF_Activity [2, 10]: A (active (A) compounds having >25% inhibitory activity)

Compound: Diacetoxyscirpenol
- T.vaginalis_%inb_Rep1 [1]: 8.29%
- T.vaginalis_%inb_Rep2 [1]: 9.08%
- T.vaginalis_Absorbance_Rep1 [1]: 0.923
- T.vaginalis_Absorbance_Rep2 [1]: 0.786
- NFF_Activity [2]: I (key: active (A) compounds having >25% inhibitory activity; otherwise these were reported as inactive (I))

Compound: CCCC[C@H]1C(=O)O[C@H](C)[C@H](NC(=O)c2cccc(NC=O)c2O)C(=O)O[C@@H](C)[C@@H]1OC(=O)CC(C)C [BIA-A1444]
- T.vaginalis_%inb_Rep1 [1, 13]: 12.87%
- T.vaginalis_%inb_Rep2 [1, 14]: 14.61%
- NFF_Activity [2, 15]: I (otherwise these were reported as inactive (I))

Compound: COc1cc(C)c2c(OC)cc(=O)oc2c1-c1c(OC)cc(C)c2c(OC)cc(=O)oc12 [BIA-K1634]
- T.vaginalis_%inb_Rep1 [1, 11]: 14.30%
- T.vaginalis_%inb_Rep2 [1, 12]: 13.02%
- NFF_Activity ([2]; NFF cells, screen at 5 µg/mL): I (otherwise these were reported as inactive (I))

Compound: COc1cc2c(c3oc4cccc(O)c4c(=O)c13)[C@@H]1C=CO[C@@H]1O2 [BIA-S1213]
- T.vaginalis_%inb_Rep1 [1, 16]: 10.12%
- T.vaginalis_%inb_Rep2 [1, 17]: 14.32%
- NFF_Activity [2, 18]: I (otherwise these were reported as inactive (I))

Compound: CC(C)=CCC[C@H](C)[C@@]1(O)CC[C@]2(C)C[C@H]3[C@H](C(=O)C[C@@]3(C)O)/C(C=O)=C\C[C@H]21 [Ophiobolin B]
- T.vaginalis_%inb_Rep1 [1, 8]: 11.82%
- T.vaginalis_%inb_Rep2 [1, 9]: 13.09%
- NFF_Activity [2, 10]: A (active (A) compounds having >25% inhibitory activity)

Compound: Pladienolide B
- T.vaginalis_%inb_Rep1 [1, 8]: 11.92%
- T.vaginalis_%inb_Rep2 [1, 9]: 13.15%
- NFF_Activity [2, 10]: I (otherwise these were reported as inactive (I))

Compound: C=C1c2c(Cl)ccc(O)c2C(O)=C2C(=O)C3(O)C(O)=C(C(N)=O)C(=O)C(N(C)C)C3C(O)C12 (stereo not drawn) [BIA-M1464]
- T.vaginalis_%inb_Rep1 [1, 11]: 17.14%
- T.vaginalis_%inb_Rep2 [1, 12]: 5.39%
- NFF_Activity ([2]; NFF cells, screen at 5 µg/mL): I (otherwise these were reported as inactive (I))

Compound: CCCCCC[C@H]1C(=O)O[C@H](C)[C@H](NC(=O)c2cccc(NC=O)c2O)C(=O)O[C@@H](C)[C@@H]1OC(=O)CC(C)C [BIA-A1442]
- T.vaginalis_%inb_Rep1 [1, 13]: 17.88%
- T.vaginalis_%inb_Rep2 [1, 14]: 12.87%
- NFF_Activity [2, 15]: I (otherwise these were reported as inactive (I))

Compound: COc1oc([C@H]2C/C(=C/C(C)=C/c3ccc([N+](=O)[O-])cc3)CO2)c(C)c(=O)c1C [BIA-A1009]
- T.vaginalis_%inb_Rep1 [1, 13]: 12.82%
- T.vaginalis_%inb_Rep2 [1, 14]: 5.78%
- NFF_Activity [2, 15]: I (otherwise these were reported as inactive (I))

Compound: CCC(=O)[C@@H](C)[C@@H](O)[C@H](C)C[C@@H](C)[C@H]1OC(=O)C[C@@]2(O)CC=C(C)[C@H](O2)/C(C)=C/CCC[C@@H](O[C@H]2C[C@@H](O)[C@H](O)[C@@H](C)O2)/C=C/[C@H](C)C[C@H]1C [Venturicidin B]
- T.vaginalis_%inb_Rep1 [1, 3]: 9.81%
- T.vaginalis_%inb_Rep2 [1, 5]: 16.33%
- NFF_Activity [2, 7]: I (otherwise these were reported as inactive (I))

Compound: Nc1ncnc2c1ncn2[C@@H]1O[C@H](C[C@@H](N)CC[C@H](N)C(=O)O)[C@@H](O)[C@H]1O [BIA-S1376]
- T.vaginalis_%inb_Rep1 [1, 16]: 11.43%
- T.vaginalis_%inb_Rep2 [1, 17]: 25.29%
- NFF_Activity [2, 18]: I (otherwise these were reported as inactive (I))

Compound: O=C(O)c1nccc2c1[nH]c1ccccc12 [BIA-F1943]
- T.vaginalis_%inb_Rep1 [1, 13]: 8.34%
- T.vaginalis_%inb_Rep2 [1, 14]: 10.54%
- NFF_Activity [2, 15]: I (otherwise these were reported as inactive (I))

Compound: CC1C=CC=CC=CC=CC=CC=CC=CC(OC2OC(C)C(O)C(N)C2O)CC2OC(O)(CC(O)CC(O)C(O)CCC(O)CC(O)CC(=O)OC(C)C(C)C1O)CC(O)C2C(=O)O (stereo not drawn) [BIA-A1441]
- T.vaginalis_%inb_Rep1 [1, 13]: 13.68%
- T.vaginalis_%inb_Rep2 [1, 14]: 14.03%
- NFF_Activity [2, 15]: I (otherwise these were reported as inactive (I))

Compound: CC1(C)CC[C@]2(C(=O)O)CC[C@]3(C)C(=CC[C@@H]4[C@@]5(C)C[C@@H](O)[C@H](O)[C@@](C)(CO)[C@@H]5CC[C@]43C)[C@@H]2C1 [BIA-A1754]
- T.vaginalis_%inb_Rep1 [1, 13]: 13.25%
- T.vaginalis_%inb_Rep2 [1, 14]: 12.44%
- NFF_Activity [2, 15]: I (otherwise these were reported as inactive (I))
